Source: patent EP0726263A2, “Herbicidal (1,3,4)oxadiazoles and thiadiazoles” (American Cyanamid Company, priority 1995, dated 1996)

Key:
Type in all cases: in vivo
[1] = tested on: Matricaria inodora; experiment: Herbicidal activity, preemergence test; details: pre; sprayed onto soil, 800 g of active material per hectare; evaluated 3 weeks after treatment
Description: (§1) To evaluate their herbicidal activity, compounds according to the invention are tested using a representative range of plants: TRZAW Triticum aestivum HORVW Hordeum vulgare ZEAMX Zea mays GOSHI Gossypium hirsutum HELAN Helianthus annuus GLYMA Glycine max ALOMY Alopecurus myosuroides SETVI Setaria viridis ECHCG Echinochloa crus-galli GALAP Galium aparine STEME Stellaria media VERPE Veronica persica VIOAR Viola arvensis IPOHE Ipomoea hederacea LAMPU Lamium purpureum PAPRH Papaver rhoeas MATIN Matricaria inodora AMARE Amaranthus retroflexus ABUTH Abutilon theophrasti AMBEL Ambrosia artemisifolia CHEAL Chenopodium album
(§2) The tests fall into two categories, preemergence and postemergence. The preemergence tests involve spraying a liquid formulation of the compound onto the soil in which the seeds have recently been sown. The postemergence tests involve spraying a liquid formulation of the compound onto seedling plants.
(§3) The soil used in the tests is a prepared horticultural loam.
(§4) The formulations used in the tests are prepared from solutions of the test compounds in acetone containing 0.4% by weight of an alkylphenol/ethylene oxide condensate available under the trade mark TRITON X-155. These acetone solutions are diluted with water and the resulting formulations applied at dosage levels corresponding to 800 g of active material per hectare in a volume equivalent to 900 litres per hectare.
(§5) In the preemergence tests untreated sown soil and in the postemergence tests untreated soil bearing seedling plants are used as controls.
(§6) Results of herbicide evaluation are expressed on a rating scale (0-9). The scale is based upon a visual observation of plant stand, vigor, malformation, size, chlorosis, and general plant appearance as compared to a control. Preemergence and postemergence treatments are evaluated at 3 and 2 weeks after treatment, respectively.

[2] = tested on: Hordeum vulgare; experiment: Herbicidal activity, preemergence test; details: pre; sprayed onto soil, 800 g of active material per hectare; evaluated 3 weeks after treatment
Description: as §1, §2, §3, §4, §5, §6

[3] = tested on: Gossypium hirsutum; experiment: Herbicidal activity, preemergence test; details: pre; sprayed onto soil, 800 g of active material per hectare; evaluated 3 weeks after treatment
Description: as §1, §2, §3, §4, §5, §6

[4] = tested on: Veronica persica; experiment: Herbicidal activity, preemergence test; details: pre; sprayed onto soil, 800 g of active material per hectare; evaluated 3 weeks after treatment
Description: as §1, §2, §3, §4, §5, §6

[5] = tested on: Chenopodium album; experiment: Herbicidal activity, preemergence test; details: pre; sprayed onto soil, 800 g of active material per hectare; evaluated 3 weeks after treatment
Description: as §1, §2, §3, §4, §5, §6

[6] = tested on: Alopecurus myosuroides; experiment: Herbicidal activity, preemergence test; details: pre; sprayed onto soil, 800 g of active material per hectare; evaluated 3 weeks after treatment
Description: as §1, §2, §3, §4, §5, §6

[7] = tested on: Triticum aestivum; experiment: Herbicidal activity, preemergence test; details: pre; sprayed onto soil, 800 g of active material per hectare; evaluated 3 weeks after treatment
Description: as §1, §2, §3, §4, §5, §6

[8] = tested on: Ambrosia artemisifolia; experiment: Herbicidal activity, preemergence test; details: pre; sprayed onto soil, 800 g of active material per hectare; evaluated 3 weeks after treatment
Description: as §1, §2, §3, §4, §5, §6

[9] = tested on: Amaranthus retroflexus; experiment: Herbicidal activity, preemergence test; details: pre; sprayed onto soil, 800 g of active material per hectare; evaluated 3 weeks after treatment
Description: as §1, §2, §3, §4, §5, §6

[10] = tested on: Abutilon theophrasti; experiment: Herbicidal activity, preemergence test; details: pre; sprayed onto soil, 800 g of active material per hectare; evaluated 3 weeks after treatment
Description: as §1, §2, §3, §4, §5, §6

[11] = tested on: Papaver rhoeas; experiment: Herbicidal activity, preemergence test; details: pre; sprayed onto soil, 800 g of active material per hectare; evaluated 3 weeks after treatment
Description: as §1, §2, §3, §4, §5, §6

[12] = tested on: Glycine max; experiment: Herbicidal activity, preemergence test; details: pre; sprayed onto soil, 800 g of active material per hectare; evaluated 3 weeks after treatment
Description: as §1, §2, §3, §4, §5, §6

[13] = tested on: Stellaria media; experiment: Herbicidal activity, preemergence test; details: pre; sprayed onto soil, 800 g of active material per hectare; evaluated 3 weeks after treatment
Description: as §1, §2, §3, §4, §5, §6

[14] = tested on: Ipomoea hederacea; experiment: Herbicidal activity, preemergence test; details: pre; sprayed onto soil, 800 g of active material per hectare; evaluated 3 weeks after treatment
Description: as §1, §2, §3, §4, §5, §6

[15] = tested on: Lamium purpureum; experiment: Herbicidal activity, preemergence test; details: pre; sprayed onto soil, 800 g of active material per hectare; evaluated 3 weeks after treatment
Description: as §1, §2, §3, §4, §5, §6

[16] = tested on: Zea mays; experiment: Herbicidal activity, preemergence test; details: pre; sprayed onto soil, 800 g of active material per hectare; evaluated 3 weeks after treatment
Description: as §1, §2, §3, §4, §5, §6

[17] = tested on: Galium aparine; experiment: Herbicidal activity, preemergence test; details: pre; sprayed onto soil, 800 g of active material per hectare; evaluated 3 weeks after treatment
Description: as §1, §2, §3, §4, §5, §6

[18] = tested on: Setaria viridis; experiment: Herbicidal activity, preemergence test; details: pre; sprayed onto soil, 800 g of active material per hectare; evaluated 3 weeks after treatment
Description: as §1, §2, §3, §4, §5, §6

[19] = tested on: Matricaria inodora; experiment: Herbicidal activity, postemergence test; details: post; sprayed onto seedling plants, 800 g of active material per hectare; evaluated 2 weeks after treatment
Description: as §1, §2, §3, §4, §5, §6

[20] = tested on: Hordeum vulgare; experiment: Herbicidal activity, postemergence test; details: post; sprayed onto seedling plants, 800 g of active material per hectare; evaluated 2 weeks after treatment
Description: as §1, §2, §3, §4, §5, §6

[21] = tested on: Gossypium hirsutum; experiment: Herbicidal activity, postemergence test; details: post; sprayed onto seedling plants, 800 g of active material per hectare; evaluated 2 weeks after treatment
Description: as §1, §2, §3, §4, §5, §6

[22] = tested on: Veronica persica; experiment: Herbicidal activity, postemergence test; details: post; sprayed onto seedling plants, 800 g of active material per hectare; evaluated 2 weeks after treatment
Description: as §1, §2, §3, §4, §5, §6

[23] = tested on: Chenopodium album; experiment: Herbicidal activity, postemergence test; details: post; sprayed onto seedling plants, 800 g of active material per hectare; evaluated 2 weeks after treatment
Description: as §1, §2, §3, §4, §5, §6

[24] = tested on: Alopecurus myosuroides; experiment: Herbicidal activity, postemergence test; details: post; sprayed onto seedling plants, 800 g of active material per hectare; evaluated 2 weeks after treatment
Description: as §1, §2, §3, §4, §5, §6

[25] = tested on: Triticum aestivum; experiment: Herbicidal activity, postemergence test; details: post; sprayed onto seedling plants, 800 g of active material per hectare; evaluated 2 weeks after treatment
Description: as §1, §2, §3, §4, §5, §6

[26] = tested on: Ambrosia artemisifolia; experiment: Herbicidal activity, postemergence test; details: post; sprayed onto seedling plants, 800 g of active material per hectare; evaluated 2 weeks after treatment
Description: as §1, §2, §3, §4, §5, §6

[27] = tested on: Amaranthus retroflexus; experiment: Herbicidal activity, postemergence test; details: post; sprayed onto seedling plants, 800 g of active material per hectare; evaluated 2 weeks after treatment
Description: as §1, §2, §3, §4, §5, §6

[28] = tested on: Abutilon theophrasti; experiment: Herbicidal activity, postemergence test; details: post; sprayed onto seedling plants, 800 g of active material per hectare; evaluated 2 weeks after treatment
Description: as §1, §2, §3, §4, §5, §6

[29] = tested on: Papaver rhoeas; experiment: Herbicidal activity, postemergence test; details: post; sprayed onto seedling plants, 800 g of active material per hectare; evaluated 2 weeks after treatment
Description: as §1, §2, §3, §4, §5, §6

[30] = tested on: Glycine max; experiment: Herbicidal activity, postemergence test; details: post; sprayed onto seedling plants, 800 g of active material per hectare; evaluated 2 weeks after treatment
Description: as §1, §2, §3, §4, §5, §6

[31] = tested on: Stellaria media; experiment: Herbicidal activity, postemergence test; details: post; sprayed onto seedling plants, 800 g of active material per hectare; evaluated 2 weeks after treatment
Description: as §1, §2, §3, §4, §5, §6

[32] = tested on: Ipomoea hederacea; experiment: Herbicidal activity, postemergence test; details: post; sprayed onto seedling plants, 800 g of active material per hectare; evaluated 2 weeks after treatment
Description: as §1, §2, §3, §4, §5, §6

[33] = tested on: Lamium purpureum; experiment: Herbicidal activity, postemergence test; details: post; sprayed onto seedling plants, 800 g of active material per hectare; evaluated 2 weeks after treatment
Description: as §1, §2, §3, §4, §5, §6

[34] = tested on: Zea mays; experiment: Herbicidal activity, postemergence test; details: post; sprayed onto seedling plants, 800 g of active material per hectare; evaluated 2 weeks after treatment
Description: as §1, §2, §3, §4, §5, §6

[35] = tested on: Galium aparine; experiment: Herbicidal activity, postemergence test; details: post; sprayed onto seedling plants, 800 g of active material per hectare; evaluated 2 weeks after treatment
Description: as §1, §2, §3, §4, §5, §6

[36] = tested on: Setaria viridis; experiment: Herbicidal activity, postemergence test; details: post; sprayed onto seedling plants, 800 g of active material per hectare; evaluated 2 weeks after treatment
Description: as §1, §2, §3, §4, §5, §6

C[C@H](NC(=O)c1nnc(-c2ccccc2F)o1)c1ccccc1 [Example 10]
6 (herbicidal effect): GALAP control rating (0-9) [35]
0 (no effect): HORVW control rating (0-9) [2] | GOSHI control rating (0-9) [3] | TRZAW control rating (0-9) [7] | ABUTH control rating (0-9) [10] | IPOHE control rating (0-9) [14] | ZEAMX control rating (0-9) [16] | GALAP control rating (0-9) [17] | MATIN control rating (0-9) [19] | ALOMY control rating (0-9) [24]
8 (approaching complete kill): MATIN control rating (0-9) [1] | CHEAL control rating (0-9) [5] | AMARE control rating (0-9) [9] | LAMPU control rating (0-9) [15] | GOSHI control rating (0-9) [21] | PAPRH control rating (0-9) [29] | IPOHE control rating (0-9) [32] | LAMPU control rating (0-9) [33]
1 (trace effect): ALOMY control rating (0-9) [6]
4 (injury): HORVW control rating (0-9) [20] | GLXMA control rating (0-9) [30]
2 (slight effect): GLXMA control rating (0-9) [12] | TRZAW control rating (0-9) [25]
7 (good herbicidal effect): CHEAL control rating (0-9) [23] | AMBEL control rating (0-9) [26]
3 (moderate effect): AMBEL control rating (0-9) [8] | SETVI control rating (0-9) [18] | ZEAMX control rating (0-9) [34]
9 (complete kill): VERPE control rating (0-9) [4] | PAPRH control rating (0-9) [11] | STEME control rating (0-9) [13] | VERPE control rating (0-9) [22] | AMARE control rating (0-9) [27] | ABUTH control rating (0-9) [28] | STEME control rating (0-9) [31] | SETVI control rating (0-9) [36]

O=C(NCc1cccs1)c1nnc(-c2ccccc2F)o1 [Example 11]
4 (injury): AMBEL control rating (0-9) [26]
3 (moderate effect): CHEAL control rating (0-9) [5] | SETVI control rating (0-9) [18]
0 (no effect): HORVW control rating (0-9) [2] | GOSHI control rating (0-9) [3] | ALOMY control rating (0-9) [6] | TRZAW control rating (0-9) [7] | AMBEL control rating (0-9) [8] | ABUTH control rating (0-9) [10] | GLXMA control rating (0-9) [12] | IPOHE control rating (0-9) [14] | LAMPU control rating (0-9) [15] | GALAP control rating (0-9) [17] | MATIN control rating (0-9) [19] | HORVW control rating (0-9) [20] | ALOMY control rating (0-9) [24] | TRZAW control rating (0-9) [25] | GLXMA control rating (0-9) [30] | IPOHE control rating (0-9) [32] | LAMPU control rating (0-9) [33] | ZEAMX control rating (0-9) [34] | GALAP control rating (0-9) [35] | SETVI control rating (0-9) [36]
9 (complete kill): AMARE control rating (0-9) [27]
7 (good herbicidal effect): VERPE control rating (0-9) [4] | AMARE control rating (0-9) [9] | STEME control rating (0-9) [13] | PAPRH control rating (0-9) [29] | STEME control rating (0-9) [31]
8 (approaching complete kill): PAPRH control rating (0-9) [11] | CHEAL control rating (0-9) [23]
2 (slight effect): MATIN control rating (0-9) [1]
1 (trace effect): ZEAMX control rating (0-9) [16] | GOSHI control rating (0-9) [21]
6 (herbicidal effect): VERPE control rating (0-9) [22]
5 (definite injury): ABUTH control rating (0-9) [28]
